Measured values from patent US6150335A, “Tic-containing opioid dipeptide derivatives useful as analgesics” (Astra AB, priority 1996, dated 2000).

Legend:
δ opioid receptor = target: T1, δ opioid receptor (Rattus norvegicus, UniProt P33533); assay: δ opioid receptor binding assay, displacement of [3H]DSLET from rat brain membranes; settings: for Ki: rat brain membranes, [3H]DSLET 1.0 nM, Cheng-Prusoff; for Ki^μ/Ki^δ: δ versus μ receptor selectivity
T1 construct: Male Sprague-Dawley rats (300-350 g) from the Canadian Breeding Laboratories were decapitated and after removal of the cerebellum the brains were homogenized; from tissue; host or cells: rat brain (without cerebellum) membranes, male Sprague-Dawley
Description: (§1) μ and δ opioid receptor binding constants (Ki^μ,Ki^δ) of the compounds were determrined by displacement of relatively selective μ and δ radioligands from binding sites in rat brain membrane preparations calculated from the measured IC50 values on the basis of the equation by Cheng and Prusoff, (Y. C. Cheng and W. H. Prusoff Biochem. Pharmnacol. 22, 3099-3102 (1973)).
The μ-, δ- and κ-opioid receptor affinities of all new analogs were determined in binding assays based on displacement of μ-, δ- and κ-selective radioligands from rat brain membrane binding sites. In the case of κ-ligands guinea pig brain homogenates were used, since the relative proportion of κ-binding sites is higher in guinea pig brain than in rat brain. The experimental procedure being used in our laboratory represents a modified version of the binding assay described by Pasternak et al. (Mol. Pharnacol. 11, 340-351 (1975)). Male Sprague-Dawley rats (300-350 g) from the Canadian Breeding Laboratories were decapitated and after removal of the cerebellum the brains were homogenized in 30 volumes of ice-cold standard buffer (50 mnM Tris HCl , pH 7.7). After centrifugation at 30,000×g for 30 min at 4° C. the membranes were reconstituted in the original volume of standard buffer and incubated for 30 min at 37° C. (to release bound endogenous ligands). Subsequent centrifugation and resuspension of the pellet in the initial volume of fresh standard buffer yielded the final membrane suspension. Aliquots (2 ml) of the membrane preparations were incubated for 1-2 h at 25° C. with 1 ml standard buffer containing the peptide to be tested and one of the following radioligands at the final concentration indicated: [^3 H]DAMGO, μ-selective, 0.7 nM; […]; and [^3 H]U69,563, κ-selective, 0.5 nM. The incubation was terminated by filtration through Whatman GF/B filters under vacuum at 4° C. Following two washings with 5 ml portions of ice-cold standard buffer the filters were transferred to scintillation vials and treated with 1 ml Protosol (New England Nuclear) for 30 min prior to addition of 0.5 ml acetic acid and 10 ml Aquasol (New England Nuclear). After shaking for 30 min the vials were counted at an efficiency of 40-45%. All experiments were performed in duplicate and repeated at least three times. Specific binding of each of the three radioligands was defined by performing incubations in the presence of cold DAMGO, DSLET and U69,563, respectively, at a concentration of 1 micromolar. Values of half-maximal inhibition (IC50) of specific binding were obtained graphically from semilogarithmic plots. From the measured IC50-values, binding inhibition constants (Ki) were calculated based on Cheng and Prusoff's equation (Biochem. Pharmacol. 22, 3099-3102 (1973)). Ratios of the Ki -values determined in the μ-, δ- and κ-representative binding assays are a measure of the receptor selectivity of the compound under investigation (e.g. Ki^μ /Ki^μ indicates the selectivity for δ-receptors versus μ-receptors).

μ opioid receptor = target: T2, μ opioid receptor (Rattus norvegicus, UniProt P33535); assay: μ opioid receptor binding assay, displacement of [3H]DAMGO from rat brain membranes; settings: [3H]DAMGO 0.7 nM, Cheng-Prusoff
T2 construct: Male Sprague-Dawley rats (300-350 g) from the Canadian Breeding Laboratories were decapitated and after removal of the cerebellum the brains were homogenized; from tissue; host or cells: rat brain (without cerebellum) membranes, male Sprague-Dawley
Description: as §1
The μ-, δ- and κ-opioid receptor affinities of all new analogs were determined in binding assays based on displacement of μ-, δ- and κ-selective radioligands from rat brain membrane binding sites. In the case of κ-ligands guinea pig brain homogenates were used, since the relative proportion of κ-binding sites is higher in guinea pig brain than in rat brain. The experimental procedure being used in our laboratory represents a modified version of the binding assay described by Pasternak et al. (Mol. Pharnacol. 11, 340-351 (1975)). Male Sprague-Dawley rats (300-350 g) from the Canadian Breeding Laboratories were decapitated and after removal of the cerebellum the brains were homogenized in 30 volumes of ice-cold standard buffer (50 mnM Tris HCl , pH 7.7). After centrifugation at 30,000×g for 30 min at 4° C. the membranes were reconstituted in the original volume of standard buffer and incubated for 30 min at 37° C. (to release bound endogenous ligands). Subsequent centrifugation and resuspension of the pellet in the initial volume of fresh standard buffer yielded the final membrane suspension. Aliquots (2 ml) of the membrane preparations were incubated for 1-2 h at 25° C. with 1 ml standard buffer containing the peptide to be tested and one of the following radioligands at the final concentration indicated: [^3 H]DAMGO, μ-selective, 0.7 nM; [^3 H]DSLET, […] nM; and [^3 H]U69,563, κ-selective, 0.5 nM. The incubation was terminated by filtration through Whatman GF/B filters under vacuum at 4° C. Following two washings with 5 ml portions of ice-cold standard buffer the filters were transferred to scintillation vials and treated with 1 ml Protosol (New England Nuclear) for 30 min prior to addition of 0.5 ml acetic acid and 10 ml Aquasol (New England Nuclear). After shaking for 30 min the vials were counted at an efficiency of 40-45%. All experiments were performed in duplicate and repeated at least three times. Specific binding of each of the three radioligands was defined by performing incubations in the presence of cold DAMGO, DSLET and U69,563, respectively, at a concentration of 1 micromolar. Values of half-maximal inhibition (IC50) of specific binding were obtained graphically from semilogarithmic plots. From the measured IC50-values, binding inhibition constants (Ki) were calculated based on Cheng and Prusoff's equation (Biochem. Pharmacol. 22, 3099-3102 (1973)). Ratios of the Ki -values determined in the μ-, δ- and κ-representative binding assays are a measure of the receptor selectivity of the compound under investigation (e.g. Ki^μ /Ki^μ indicates the selectivity for δ-receptors versus μ-receptors).

guinea pig ileum (GPI) = assay: Guinea pig ileum (GPI) bioassay: inhibition of electrically evoked contractions; assay type: cell-based; settings: normalized with [Leu5]enkephalin standard, effect primarily μ-mediated
Description: (§2) Bioassays based on inhibition of electrically evoked contractions of the mouse vas deferens (MVD) and of the guinea pig ileum (GPI) were performed. In the GPI assay the opioid effect is primarily mediated by μ opioid receptors, whereas in the MVD assay the inhibition of the contractions is mostly due to interaction with δ opioid receptors.
(§3) The GPI and MVD bioassays were carried out as reported in P. W. Schiller et al., Biochem. Biophys. Res. Commun. 85, 1332-1338 (1978) and J. DiMaio et al., J. Med. Chem. 25, 1432-1438 (1982). A log-dose response curve was determined with [Leu^5 ]enkephalin as standard for each ileum and vas preparation, and IC50 values of the compounds being tested were normalized according to A. A. Waterfield et al., Eur. J. Pharmacol. 58, 11-18 (1979).

mouse vas deferens (MVD) = assay: Mouse vas deferens (MVD) bioassay: inhibition of electrically evoked contractions; assay type: cell-based; settings: for GPI/MVD IC50 ratio: ratio of GPI IC50 to MVD IC50
Description: as §2, §3

[1] = inhibition of electrically evoked contractions, normalized with [Leu5]enkephalin standard, effect mostly δ-mediated

T2 sequence (P33535 whole entry): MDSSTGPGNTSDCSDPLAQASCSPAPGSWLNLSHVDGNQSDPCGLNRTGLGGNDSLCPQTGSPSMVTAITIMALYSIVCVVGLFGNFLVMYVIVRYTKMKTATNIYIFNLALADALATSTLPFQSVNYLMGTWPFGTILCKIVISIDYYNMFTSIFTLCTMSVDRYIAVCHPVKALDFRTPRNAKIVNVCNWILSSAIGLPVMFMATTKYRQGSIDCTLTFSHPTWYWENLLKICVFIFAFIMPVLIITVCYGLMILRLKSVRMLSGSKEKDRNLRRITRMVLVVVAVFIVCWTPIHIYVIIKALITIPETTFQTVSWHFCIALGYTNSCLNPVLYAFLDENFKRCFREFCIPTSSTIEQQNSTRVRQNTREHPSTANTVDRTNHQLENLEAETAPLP
T1 sequence (P33533 whole entry): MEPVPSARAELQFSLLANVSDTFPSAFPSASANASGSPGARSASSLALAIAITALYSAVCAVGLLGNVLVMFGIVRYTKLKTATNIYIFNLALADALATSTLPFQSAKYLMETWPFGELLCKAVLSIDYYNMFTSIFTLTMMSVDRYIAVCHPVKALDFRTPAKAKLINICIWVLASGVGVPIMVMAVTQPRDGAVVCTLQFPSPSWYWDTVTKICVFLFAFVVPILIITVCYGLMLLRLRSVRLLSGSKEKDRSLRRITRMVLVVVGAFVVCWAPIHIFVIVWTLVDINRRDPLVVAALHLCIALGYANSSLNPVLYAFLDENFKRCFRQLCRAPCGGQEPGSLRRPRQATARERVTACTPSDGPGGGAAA

| Compound | Ki (δ opioid receptor) [nM] | Ki^μ/Ki^δ (δ opioid receptor) | Ki (μ opioid receptor) [nM] | IC50 (guinea pig ileum (GPI)) [nM] | IC50 (mouse vas deferens (MVD); [1]) [nM] | GPI/MVD IC50 ratio (mouse vas deferens (MVD)) | δ opioid agonist character (full / partial) (mouse vas deferens (MVD); conclusion from MVD and GPI assays) | MVD IC50 (mouse vas deferens (MVD); [1]) |
| --- | --- | --- | --- | --- | --- | --- | --- | --- |
| CCOC(=O)C(CNC(=O)[C@@H]1Cc2ccccc2CN1C(=O)[C@@H](N)Cc1ccc(O)cc1C)c1ccccc1 (single isomer, unassigned) [Example 30] | 1.63 ± 0.27 | 101 | 164 ± 11 | 826 ± 183 | 1.62 ± 0.12 | 510 |  |  |
| Nc1ccc(C(CNC(=O)[C@@H]2Cc3ccccc3CN2C(=O)[C@@H](N)Cc2ccc(O)cc2)c2ccc(N)cc2)cc1 [Example 25] | 2.67 ± 0.83 | 2000 | 5340 ± 700 | > 10000 | 7.81 ± 0.48 | > 1280 |  |  |
| NC(Cc1ccc(O)cc1)C(=O)N1Cc2ccccc2CC1C(=O)NCC(c1ccccc1)c1ccccc1 (stereo not drawn) [Example 1, H-Tyr-Tic-NH--CH2 --CH--(Ph)2] | 0.981 ± 0.038 | 29.4 | 28.8 ± 4.2 | 3630 ± 470 | 3.77 ± 1.05 | 963 |  |  |
| N[C@@H](Cc1ccc(O)cc1)C(=O)N1Cc2ccccc2C[C@H]1C(=O)NCC(C1CCCCC1)C1CCCCC1 [Example 23] | 11.3 ± 3.3 | 4.64 | 52.4 ± 2.5 | 1580 ± 610 | 21.5 ± 6.8 | 73.5 |  |  |
| NC(=O)C(CNC(=O)[C@@H]1Cc2ccccc2CN1C(=O)[C@@H](N)Cc1ccc(O)cc1)c1ccccc1 (single isomer, unassigned) [Example 17] | 21.5 ± 4.2 | 3.43 | 73.7 ± 0.6 | 2140 ± 470 | 34 ± 2.9 | 62.9 |  |  |
| N[C@@H](Cc1ccc(O)cc1)C(=O)N1Cc2ccccc2C[C@H]1C(=O)N[C@H]1CCc2ccccc2C1 [Example 19, H-Tyr-Tic-2-S-At (At = aminotetralin)] | 4.55 | 12.3 | 55.8 ± 6.3 | 1710 ± 230 | 38.1 | 44.9 |  |  |
| CCOC(=O)C(CNC(=O)[C@@H]1Cc2ccccc2CN1C(=O)[C@@H](N)Cc1ccc(O)cc1)c1ccccc1 (single isomer, unassigned) [Example 16] | 3.03 ± 0.66 | 50.5 | 153 ± 5 | > 10000 | 8.64 ± 1.31 | >1160 |  |  |
| NC(Cc1ccc(O)cc1)C(=O)N1Cc2ccccc2CC1C(=O)NC1CC1c1ccccc1 (single isomer, unassigned) [Example 21] | 4.13 ± 0.27 | 9.20 | 38 ± 11.2 | 1600 ± 500 |  |  | partial δ agonists | partial agonist |
| N[C@@H](Cc1ccc(O)cc1)C(=O)N1Cc2ccccc2C[C@H]1C(=O)NCCc1ccccc1[N+](=O)[O-] [Example 29] | 7.7 ± 0.45 | 46.1 | 355 ± 13 | 1850 ± 540 | 29.1 ± 10.6 | 63.6 |  |  |
| CCOC(=O)C(CNC(=O)[C@@H]1Cc2ccccc2CN1C(=O)[C@@H](N)Cc1ccc(O)cc1)c1ccccc1 (single isomer, unassigned) [Example 15] | 0.569 ± 0.08 | 1560 | 886 ± 172 | > 10000 | 1.28 ± 0.18 | >7810 |  |  |
| N[C@@H](Cc1ccc(O)cc1)C(=O)N1Cc2ccccc2C[C@H]1C(=O)NCC(c1ccc(Cl)cc1)c1ccc(Cl)cc1 [Example 26] | 2.82 ± 0.07 | 553 | 1560 ± 60 | > 10000 | 397 ± 33 | > 25.2 |  |  |
| N[C@@H](Cc1ccc(O)cc1)C(=O)N1Cc2ccccc2C[C@H]1C(=O)NCC(CO)c1ccccc1 (single isomer, unassigned) [Example 27] | 1.26 ± 0.11 | 55.8 | 70.3 ± 2.3 | 526 ± 51 | 13.6 ± 2.2 | 38.7 |  |  |
| Cc1ccccc1CCNC(=O)[C@@H]1Cc2ccccc2CN1C(=O)[C@@H](N)Cc1ccc(O)cc1 [Example 6] | 1.75 ± 0.1 | 22.1 | 38.7 ± 8.9 | 759 ± 152 | 10.1 ± 1.2 | 75.1 |  |  |
| N[C@@H](Cc1ccc(O)cc1)C(=O)N1Cc2ccccc2C[C@H]1C(=O)NCC(c1ccc([N+](=O)[O-])cc1)c1ccc([N+](=O)[O-])cc1 [Example 24] | 7.17 ± 0.24 | 88.6 | 635 ± 109 | 5200 ± 1100 | 8.91 ± 1.53 | 584 |  |  |
